Structure (SMILES) | melting point [°C]
CC(Oc1cc(Oc2ccc(C(F)(F)F)cc2Cl)ccc1[N+](=O)[O-])C(=O)NCC1CCCO1 (stereo unspecified) | 102 to 104
Cc1ccccc1C=C1CCn2c1nc1ccc(C#N)cc1c2=O | 234 to 236
CC(C#N)(Cn1ncc2cc([N+](=O)[O-])ccc21)NC(=O)c1ccc(OC(F)(F)F)cc1 (stereo unspecified) | 203 to 205
Cc1nc(NC(=O)c2cnccn2)c(Br)c(C)c1Br | 166
NC(=O)c1cc(-c2ccccc2)n[nH]c1=O | > 300
CCO[PH](=O)C#Cc1c(C(C)C)c2ccccc2n1-c1ccc(F)cc1 (stereo unspecified) | 80 to 82.5
CN(C)Cc1nnc(CO)n1-c1ccc(Cl)cc1C(=O)c1ccccc1 | 138 to 141
O=c1[nH]cnc(C(F)(F)F)c1Br | 226 to 227
COC(=O)C(=O)c1c(OC)cc(OCCOc2ccc3ccccc3c2)cc1OC | 161 to 162
COC(=O)CCc1c(Cc2ccccc2C(F)(F)F)sc2c1c(=O)n(C)c(=O)n2CC(C)C | 86 to 88
CCCCCCc1cccc(-c2cn(C)cc(-c3ccccc3)c2=O)c1 | 93 to 95
COc1ccc(CCNC(=O)CCc2ccc(Cl)cc2)cc1C | 142 to 144
COC(=O)c1ccc(C#C[Si](C)(C)C)cn1 | 45
COc1cc(C2NCCS2)ccc1O (stereo unspecified) | 158 to 161
CC(=O)NCC1CN(c2ccc(N3CC4CCCN(C(=O)OCc5ccccc5)C4C3)c(F)c2)C(=O)O1 (stereo unspecified) | 74 to 76
CNC(=O)c1ccccc1Nc1nc(Nc2ccc3c(c2)CCC(=O)CC3)ncc1Cl | 262 to 269
CC(C)OC1OC(=O)CC(C)(C)C1OS(C)(=O)=O (stereo unspecified) | 75
CCCCc1nc(C2CCCCC2)n(Cc2ccc(-c3ccccc3-c3ncn[nH]3)cc2)n1 | 158 to 160
Cc1ccc(Oc2ccccc2-n2cnnn2)c(O)c1 | 157 to 160
Cn1c(-c2ccccc2)c(CCC(=O)O)c2ccccc2c1=O | 138 to 140
COC(=O)Cc1c(NC(C)=O)n(C)c2ccccc12 | 126 to 128
Cc1cc(Cl)c(C(=O)OC(C)c2nc3c(c(=O)n(C)c(=O)n3C)n2C)c(C)n1 (stereo unspecified) | 168 to 170
Cc1cc(C)n2ncc(I)c2n1 | 120 to 122
CC(C)(C)[C@H]1CC[C@H](CC2=C(O)C(=O)c3ccccc3C2=O)CC1 | 180 to 182
O=C(CCCCC1CCSS1)N1CCSC1 (stereo unspecified) | 40 to 41
O=C(NCCCCN1CCC(c2ccc3c(c2OCc2ccccc2)CCCC3)CC1)c1ccc(-c2ccc(C(F)(F)F)cc2)cc1 | 169 to 170

Structure (SMILES) | melting point [°C]
C=CCNS(=O)(=O)c1ccc(I)cc1 | 76 to 77
CC(C)c1ccc2ncn(/C=C/C(=O)O)c(=O)c2c1 | 242 to 243
CCC(C)Cc1ccc(C(=O)O)cc1Br (stereo unspecified) | 78.8 to 79.7
CCN(c1ccc(Cl)cc1C#N)S(=O)(=O)c1ccc(C)cc1 | 138 to 140
COc1cc(Nc2c(C#N)cnc3cc(-c4ccc(Cn5ccnn5)cc4)ccc23)c(Cl)cc1Cl | 239 to 240
CC(C)[C@H](N)C(=O)N[C@@H](Cc1ccccc1)C(O)[C@H](Cc1ccccc1)NC(=O)[C@@H](N)C(C)C | 131 to 132
CCC1(CCCCCC(=O)O)C(=O)NC(=O)NC1=O | 185 to 192
CN(C)C(=O)c1ccccc1OCC(=O)NC(C)(C)c1ccc(Cl)cc1 | 127 to 129
CCCCCCOC(=O)NC(=N)c1ccc(NCc2nc3cc(C(=O)N(CCC(=O)OCC)c4ccccn4)ccc3n2C)cc1 | 126 to 128
CCOC(=O)c1ncc2[nH]c3ccccc3c2c1CCOC | 181 to 183
O=S1(=O)c2cccc3cccc(c23)N1CCCCN1CCN(c2ccc(O)cc2)CC1 | 195
COc1cccc2c1CCCC2n1cc[nH]c1=S (stereo unspecified) | 176 to 177
COc1cc(C=Cc2nc3c([nH]2)c(=O)n(C)c(=O)n3C)cc(OC)c1 | > 320
N=C(c1cc(Cl)ccc1N)C1CCCCC1 | 65
O=C1OCCN1CCN1CCN(C2Cc3cc(F)ccc3Sc3ccccc32)CC1 (stereo unspecified) | 158 to 159
C=CCn1c(=O)c2c(nc(/C=C/c3cc(OC)c(OC(=O)c4ccccc4)c(OC)c3)n2C)n(CC=C)c1=O | 179 to 180
COC(C)(OC)OC(=O)N[C@@H](Cc1cn(S(=O)(=O)c2ccc(C)cc2)cn1)C(=O)O | 120
C#CCOc1ccc2c(C)nnc(Cl)c2c1 | 169 to 171
OC1CCN(c2ccncc2)CC1 | 155 to 156
CCCCCCCCCCCCCCOc1cccc(C(=O)N(CC(=O)OC)CC(=O)OC)c1 | < 23
CCc1ccc(Nc2c(C(=O)NOCCO)ccc(F)c2F)c(F)c1 | 112
COc1cc2c(cc1OC)C1C(Cl)=NC=NC1N2 (stereo unspecified) | 148 to 150
COC[C@@H]1CCCN1S(=O)(=O)c1ccc(Cl)c(COc2cccc3c(-n4ccnc4)cc(C)nc23)c1Cl | 66
Nc1nc(-c2ccc(CCN3CCN(c4cccc(C(F)(F)F)c4)CC3)cc2)cs1 | 274 to 277
C[C@@H](Nc1ccc([N+](=O)[O-])cc1)C(=O)O | 238 to 244
CC(C)C[C@H](NC(=O)N1CCCCCC1)C(=O)O | 88 to 89

Structure (SMILES) | melting point [°C]
COc1cc(C(=O)NCC2NC(C)Cc3ccccc32)cc(OC)c1OC (stereo unspecified) | 162 to 164
CCCCSC(=O)NC(=O)C(c1ccccc1)c1ccccc1 | 99
C[C@H]1[C@@H](C(C)(C)O)CCN1c1ccc(C#N)c(Cl)c1F | 125 to 126
c1ccc2[nH]c(CN3CCOCC3)nc2c1 | 235 to 236
Nc1nc(-c2ccc(CN3CCCCCC3)s2)n[nH]1 | 160 to 161
OC/C=C/c1ccc(O)c(OCc2ccccc2)c1 | 99 to 101
CCc1nc2c(N)nc3ccc(OCc4ccccc4)cc3c2n1C | 238 to 239
Cc1n[nH]c2c(C(=O)NC3(C4CC4)CC3)c(NC(=O)c3cc(C(F)(F)F)nn3-c3ncccc3Cl)c(Cl)cc12 | 228 to 229
CNC(=O)c1c(C)c([N+](=O)[O-])cc2nc(OC)c(OC)nc12 | 205 to 206
CCC(=O)OCc1ccc(-c2[nH]c(-c3cccc4ccccc34)nc2C(=O)Nc2nccs2)cc1 | 281 to 283
CC(SC1COC(c2ccc(C(=O)Nc3ccc(CC#N)cc3)cc2)OC1)C(O)(Cn1cncn1)c1ccc(F)cc1F (stereo unspecified) | 188
Cc1ccc2nc(Cl)nc(NN)c2c1 | > 280
C=CCOC(=O)c1c(C)nc2c(cnn2CCOCC)c1N | 38 to 40
O=C1Nc2cccc(-c3cccc(NC(=O)c4cccc(Br)c4)c3)c2/C1=C/c1ccc[nH]1 | 251 to 253
CC(C)OC(=O)c1ncn2c3cccc(Cl)c3c(=O)n(C)c12 | 216 to 220
CCOC(=O)c1sc(SC)c2c1CCc1nc(C)oc1-2 | 131 to 132
CC(C)(C)OC(=O)NC(CC(=O)Nc1n[nH]c(=S)s1)c1ccccc1 (stereo unspecified) | 248 to 249
CC(=O)NCc1ccc2ccn(C3CCN(CCc4ccc(Cl)cc4)CC3)c2c1 | 148 to 149
Cn1cncc1C(O)(c1ccc(Cl)cc1)c1ccc2c(c1)C(c1cccc(Cl)c1)SCC(=O)N2 (stereo unspecified) | 210
COC(=O)c1cc(NC(=O)OC(C)(C)C)c(NC(=O)CC(=O)c2cccc(C#N)c2)cc1I | 162 to 166
COc1ccc2nc(Oc3c(Cl)cc(N)cc3Cl)sc2c1 | 158 to 160
O=c1[nH]c(=O)n(Cc2ccccc2)cc1C(F)(F)F | 194 to 195
CC(=NO)c1nc(N)nc(N)c1-c1ccc(Cl)cc1 | 256 to 259
CCCCCCCCCCCCCCCCCCOc1cn(-c2ccccc2)c(CO)cc1=O | 67 to 72
CCCCCCCCCCCCCCOc1ccc(CCN(C(C)=O)c2cccc(Cc3nccs3)c2)cc1 | 46 to 50
COCOc1ccc(C(=O)OC)c(O)c1C | 73.8 to 74

Structure (SMILES) | melting point [°C]
CCS(=O)(=O)c1ccc(C2=C(c3ccc(S(C)(=O)=O)cc3)OC(C)(C)C2=O)cc1 | 198 to 203
CCCCCCCCOC(=O)c1ccc(OC(=O)c2ccc(C(=O)Oc3ccc(C(=O)OCCCCCCCC)cc3)cc2)cc1 | 108 to 110
O=C1OC(=O)c2c1cccc2N1C(=O)CCC1=O | 202 to 205
O=C1c2cccc3cccc(c23)C(=O)N1CCCCCO | 96.5 to 97.5
CN(C(=O)c1ccc(C(C)(C)C)cc1)C1N(C)C(c2ccc(F)cc2)=NC1(C(F)(F)F)C(F)(F)F (stereo unspecified) | 129 to 130
CCC(=O)NCC1CC1c1cccc2nnsc12 (stereo unspecified) | 67 to 69
Cc1nc2n(c(=O)c1CCN1CCC(C(=O)c3ccc(F)cc3)CC1)CCCN2Cc1ccccc1 | 126
COc1ccc(CC(C)=O)cc1S(=O)(=O)Cl | 80 to 81
CC1SC(=O)NN=C1c1ccc2c(c1)C(=Cc1ccccn1)C(=O)N2 (stereo unspecified) | 296
CCOC(=O)CCc1cn(-c2ccccc2)nc1O | 116 to 118
CCCN1C(=O)CN=C(c2cccc(C(F)(F)F)c2)c2cc(OC)c(OC)cc21 | 135 to 137
O=C(Nc1cc(F)cc2c(=O)cc(C(=O)O)oc12)c1ccc2c(c1)CC(CCCc1ccccc1)O2 (stereo unspecified) | 183 to 185
COc1ccc(C(CC(C)(C)C(=O)O)c2ccc(Cl)cc2)cc1 (stereo unspecified) | 139 to 142
CC(C)Nc1cncc(C(=NCCO[N+](=O)[O-])NC#N)c1 | 123
CCOc1cc(-c2cc(C(F)(F)F)n3ncc(C(=O)Nc4cc(S(=O)(=O)NCCO)sc4Cl)c3n2)ccc1C(F)(F)F | 250
OC1CSC(Oc2cccnc2-c2nnn[nH]2)C(O)C1O (stereo unspecified) | 170
OCc1ccccc1NC1CCN(Cc2ccccc2)CC1 | 164 to 168
O=C(NCc1ccccc1F)c1ccc2cnccc2n1 | 110 to 111
CCOC(=O)C1=C(C)NN=C(CC)C1c1cccc(OC)c1 (stereo unspecified) | 89
CCOC(=O)CCC(=O)c1ccc(-c2ccccc2F)cc1 | 56 to 58
COC(=O)c1cn2c(C(F)(F)F)nnc2c2ccccc12 | 170
CON(C(=O)c1cn(C)nc1C(F)F)C(C)c1ccc(I)cc1 (stereo unspecified) | 72 to 74
Cc1cc2nc(N)[nH]c(=O)c2[nH]1 | 252 to 254
